This passage reports remaining activity results from patent publication US11912699B2, “Tau-protein targeting compounds and associated” (Arvinas Operations, Inc., priority 2019, dated 2024).

The target of this test is T1, Tau P301L (Homo sapiens, UniProt P10636, P618L).
T1 construct: expressed in transfected cells
Briefly: In vitro tau degradation assay in CHOK1 Tau P301L cells (sarkosyl insoluble tau, WES). The class given is cell-based. The conditions noted are these: CHO-K1, relative to DMSO doxycycline control, read-out: Tau Protein Degradation effect at 1 μM. In short, it runs like this: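 T-Rex CHOK1 clone D1 with doxycycline-inducible (1 μg/ml) Tau P301L treated 48 h with compound at 1 μM, doxycycline removed for the final 24 h. Sarkosyl-insoluble tau quantified by WES capillary electrophoresis with Tau1 antibody, expressed relative to DMSO doxycycline control and binned as ≤50% or >50% remaining.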

The mark [1] stands for this setting: remaining tau protein in sarkosyl insoluble pellet, CHOK1 Tau P301L cells treated 48 hours with test compound at 1 μM, doxycycline removed for the last 24 hours.

Like-named read-outs stand apart in the source and are kept apart here.

T1 sequence (P10636 1-441 isoform P10636-8 P301L): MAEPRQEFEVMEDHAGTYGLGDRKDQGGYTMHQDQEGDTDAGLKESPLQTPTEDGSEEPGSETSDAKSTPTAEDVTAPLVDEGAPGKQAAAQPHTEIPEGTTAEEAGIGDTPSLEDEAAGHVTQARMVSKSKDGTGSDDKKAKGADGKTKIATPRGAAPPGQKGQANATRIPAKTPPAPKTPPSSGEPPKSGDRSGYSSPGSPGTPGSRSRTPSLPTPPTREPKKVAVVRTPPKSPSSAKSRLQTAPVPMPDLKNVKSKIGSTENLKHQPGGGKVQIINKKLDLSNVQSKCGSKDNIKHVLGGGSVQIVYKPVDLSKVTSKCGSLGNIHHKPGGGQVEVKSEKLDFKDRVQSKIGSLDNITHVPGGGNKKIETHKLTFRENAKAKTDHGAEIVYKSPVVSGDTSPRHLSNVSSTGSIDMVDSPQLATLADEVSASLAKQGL

For the molecule `O=C1CCC(N2C(=O)c3ccc(OCCCN4CCC5(CC4)CN(c4ncc(-c6ccc7c8cnccc8n(C(F)F)c7c6)cc4F)C5)cc3C2=O)C(=O)N1` (stereo not shown) [Compound 568, 5-(3-(2-(5-(5-(difluoromethyl)-5H-pyrido[4,3-b]indol-7-yl)-3-fluoropyridin-2-yl)-2,7-diazaspiro[3.5]nonan-7-yl)propoxy)-2-(2,6-dioxopiperidin-3-yl)isoindoline-1,3-dione], the remaining activity at 1 µM under setting [1] was under 50%.

With `O=C1CCC(N2C(=O)c3ccc(N4CCN(CC(F)(F)C5CCN(c6ccc(-c7ccc8c(c7)[nH]c7ccncc78)cn6)CC5)CC4)cc3C2=O)C(=O)N1` (stereo not shown) [Compound 569, 5-(4-(2-(1-(5-(5H-pyrido[4,3-b]indol-7-yl)pyridin-2-yl)piperidin-4-yl)-2,2-difluoroethyl)piperazin-1-yl)-2-(2,6-dioxopiperidin-3-yl)isoindoline-1,3-dione], the remaining activity at 1 µM under setting [1] is under 50%.

For `O=C1CCC(N2C(=O)c3ccc(N4CCN(CC#CC5CCN(c6ncc(-c7ccc8c9cnccc9n(C(F)F)c8c7)cc6F)CC5)CC4)cc3C2=O)C(=O)N1` (stereo not shown) [Compound 574, 5-(4-(3-(1-(5-(5-(difluoromethyl)-5H-pyrido[4,3-b]indol-7-yl)-3-fluoropyridin-2-yl)piperidin-4-yl)prop-2-yn-1-yl)piperazin-1-yl)-2-(2,6-dioxopiperidin-3-yl)isoindoline-1,3-dione], the remaining activity at 1 µM under setting [1] is under 50%.

As for `O=C1CCC(N2C(=O)c3ccc(N4CCN(CCCN5CCOC6(CCN(c7ccc8c9cnccc9n(C(F)F)c8c7)CC6)C5)CC4)cc3C2=O)C(=O)N1` (stereo not shown) [Compound 575, 5-(4-(3-(9-(5-(difluoromethyl)-5H-pyrido[4,3-b]indol-7-yl)-1-oxa-4,9-diazaspiro[5.5]undecan-4-yl)propyl)piperazin-1-yl)-2-(2,6-dioxopiperidin-3-yl)isoindoline-1,3-dione], the remaining activity at 1 µM under setting [1] was under 50%.

As to `O=C1CCC(N2C(=O)c3ccc(OCCC4CCN(C[C@H]5C[C@H](Oc6cc(Nc7ccc8ncccc8n7)ccn6)C5)CC4)cc3C2=O)C(=O)N1` (stereo partly shown) [Compound 577, 5-(2-(1-(((1r,3r)-3-((4-((1,5-napthyridin-2-yl)amino)pyridin-2-yl)oxy)cyclobutyl)methyl)piperidin-4-yl)ethoxy)-2-(2,6-dioxopiperidin-3-yl)isoindoline-1,3-dione], under setting [1], the remaining activity at 1 µM is over 50%.

Regarding `CC(C)N(CC1CCN(c2ncc(-c3ccc4c5cnccc5n(C(F)F)c4c3)cc2F)CC1)[C@H]1C[C@H](Oc2ccc3c(c2)C(=O)N(C2CCC(=O)NC2=O)C3=O)C1` (stereo partly shown) [Compound 581, 5-((1r,3r)-3-(((1-(5-(5-(difluoromethyl)-5H-pyrido[4,3-b]indol-7-yl)-3-fluoropyridin-2-yl)piperidin-4-yl)methyl)(isopropyl)amino)cyclobutoxy)-2-(2,6-dioxopiperidin-3-yl)isoindoline-1,3-dione], under setting [1], the remaining activity at 1 µM was under 50%.

For `O=C1CCC(N2C(=O)c3ccc(N4CCN(CCC5CCN(c6cc(Nc7ccc8ncccc8n7)ccn6)CC5)CC4)cc3C2=O)C(=O)N1` (stereo not shown) [Compound 583, 2-(2,6-dioxo-3-piperidyl)-5-[4-[2-[1-[4-(1,5-naphthyridin-2-ylamino)-2-pyridyl]-4-piperidyl]ethyl]piperazin-1-yl]isoindoline-1,3-dione], the remaining activity at 1 µM under setting [1] was under 50%.

On to `Cc1cc(Nc2ccc3nc(N4CCC(CCN5CCN(c6ccc7c(c6)C(=O)N(C6CCC(=O)NC6=O)C7=O)CC5)CC4)ccc3n2)ccn1` (stereo not shown) [Compound 584, 2-(2,6-dioxopiperidin-3-yl)-5-(4-(2-(1-(6-((2-methylpyridin-4-yl)amino)-1,5-naphthyridin-2-yl)piperidin-4-yl)ethyl)piperazin-1-yl)isoindoline-1,3-dione], for which the remaining activity at 1 µM under setting [1] is under 50%.

As for `O=C1CCC(N2C(=O)c3ccc(C#CCN4CCN(CCC5CCN(c6ccc7c8cnccc8n(C(F)F)c7c6)CC5)CC4)cc3C2=O)C(=O)N1` (stereo not shown) [Compound 586, 5-(3-(4-(2-(1-(5-(difluoromethyl)-5H-pyrido[4,3-b]indol-7-yl)piperidin-4-yl)ethyl)piperazin-1-yl)prop-1-yn-1-yl)-2-(2,6-dioxopiperidin-3-yl)isoindoline-1,3-dione], under setting [1], the remaining activity at 1 µM was under 50%.

With `O=C1CCC(N2C(=O)c3ccc(N4CCN(C(=O)CC5CCN(c6ncc(-c7ccc8c9cnccc9n(C(F)F)c8c7)cc6F)CC5)CC4)cc3C2=O)C(=O)N1` (stereo not shown) [Compound 592, 5-(4-(2-(1-(5-(5-(difluoromethyl)-5H-pyrido[4,3-b]indol-7-yl)-3-fluoropyridin-2-yl)piperidin-4-yl)acetyl)piperazin-1-yl)-2-(2,6-dioxopiperidin-3-yl)isoindoline-1,3-dione], the remaining activity at 1 µM under setting [1] is under 50%.

Take `O=C1CCC(N2C(=O)c3ccc(N4CCN(CCC5CCN(C6CCN(c7ccc8c9cnccc9n(C(F)F)c8c7)CC6)CC5)CC4)cc3C2=O)C(=O)N1` (stereo not shown) [Compound 593]: under setting [1], the remaining activity at 1 µM is under 50%.

Turning to `O=C1CCC(N2C(=O)c3cccc(N4CCN(CCC5CCN(c6ncc(-c7ccc8c9cnccc9n(C(F)F)c8c7)cc6F)CC5)CC4)c3C2=O)C(=O)N1` (stereo not shown) [Compound 594, 4-(4-(2-(1-(5-(5-(difluoromethyl)-5H-pyrido[4,3-b]indol-7-yl)-3-fluoropyridin-2-yl)piperidin-4-yl)ethyl)piperazin-1-yl)-2-(2,6-dioxopiperidin-3-yl)isoindoline-1,3-dione], under setting [1], the remaining activity at 1 µM is under 50%.

With `O=C1CCC(N2C(=O)c3ccc(N4CCN(CCC5CCN(c6ncc(-c7ccc8c9cc(F)cnc9n(C(F)F)c8c7)cc6F)CC5)CC4)cc3C2=O)C(=O)N1` (stereo not shown) [Compound 597, 5-(4-(2-(1-(5-(9-(difluoromethyl)-3-fluoro-9H-pyrido[2,3-b]indol-7-yl)-3-fluoropyridin-2-yl)piperidin-4-yl)ethyl)piperazin-1-yl)-2-(2,6-dioxopiperidin-3-yl)isoindoline-1,3-dione], the remaining activity at 1 µM under setting [1] was under 50%.

As to `O=C1CCC(N2C(=O)c3ccc(N4CCN(CCC5CCN(c6cc7ccn(-c8cc9cc(F)ccc9cn8)c7cn6)CC5)CC4)cc3C2=O)C(=O)N1` (stereo not shown) [Compound 598, 2-(2,6-dioxopiperidin-3-yl)-5-(4-(2-(1-(1-(6-fluoroisoquinolin-3-yl)-1H-pyrrolo[2,3-c]pyridin-5-yl)piperidin-4-yl)ethyl)piperazin-1-yl)isoindoline-1,3-dione], the remaining activity at 1 µM under setting [1] was under 50%.

Take `O=C1CCC(N2C(=O)c3ccc(N4CCN(CCC5CC6(C5)CN(c5ccc(-c7ccc8c(c7)[nH]c7ccncc78)cn5)C6)CC4)cc3C2=O)C(=O)N1` (stereo not shown) [Compound 599, 5-(4-(2-(2-(5-(5H-pyrido[4,3-b]indol-7-yl)pyridin-2-yl)-2-azaspiro[3.3]heptan-6-yl)ethyl)piperazin-1-yl)-2-(2,6-dioxopiperidin-3-yl)isoindoline-1,3-dione]: the remaining activity at 1 µM under setting [1] is under 50%.

In the case of `CC1c2ccc(-c3ccc4c5cnccc5n(C(F)F)c4c3)cc2CCN1CCCCCOc1ccc2c(c1)C(=O)N(C1CCC(=O)NC1=O)C2=O` (stereo not shown) [Compound 603, 5-((5-(6-(5-(difluoromethyl)-5H-pyrido[4,3-b]indol-7-yl)-1-methyl-3,4-dihydroisoquinolin-2(1H)-yl)pentyl)oxy)-2-(2,6-dioxopiperidin-3-yl)isoindoline-1,3-dione], under “CHOK1 Tau P301L cells, remaining tau in sarkosyl insoluble pellet, 48 hours with test compound at 1 μM, doxycycline removed for last 24 hours”, the remaining activity at 1 µM is over 50%.
